Data: patent US10906910B2, “Substituted bicyclic pyrimidine compounds with tubulin and multiple receptor inhibition” (Duquesne University of the Holy Spirit, priority 2014, dated 2021)
Where two headings read alike, the source gives them in different places.

Tests used:
[1] = system: wild type HeLa cells; experiment: HeLa cytotoxicity, wild type; format: cell-based
[2] = target: PDGFRβ (Homo sapiens, UniProt P09619); experiment: PDGFRβ kinase inhibition, whole-cell assay; format: cell-based
[3] = system: bovine brain tubulin; experiment: inhibition of tubulin assembly; format: biochemical; conditions: bovine tubulin
[4] = system: A431 cells; experiment: A431 cytotoxicity; format: cell-based; conditions: Homo sapiens, A-431
[5] = target: VEGFR2 (Homo sapiens, UniProt P35968); experiment: VEGFR2 kinase inhibition, whole-cell assay; format: cell-based; conditions: read-out: kinase inhibition IC50 [whole-cell assays] VEGFR2
Chain of VEGFR2 (P35968 20-1356, species assumed): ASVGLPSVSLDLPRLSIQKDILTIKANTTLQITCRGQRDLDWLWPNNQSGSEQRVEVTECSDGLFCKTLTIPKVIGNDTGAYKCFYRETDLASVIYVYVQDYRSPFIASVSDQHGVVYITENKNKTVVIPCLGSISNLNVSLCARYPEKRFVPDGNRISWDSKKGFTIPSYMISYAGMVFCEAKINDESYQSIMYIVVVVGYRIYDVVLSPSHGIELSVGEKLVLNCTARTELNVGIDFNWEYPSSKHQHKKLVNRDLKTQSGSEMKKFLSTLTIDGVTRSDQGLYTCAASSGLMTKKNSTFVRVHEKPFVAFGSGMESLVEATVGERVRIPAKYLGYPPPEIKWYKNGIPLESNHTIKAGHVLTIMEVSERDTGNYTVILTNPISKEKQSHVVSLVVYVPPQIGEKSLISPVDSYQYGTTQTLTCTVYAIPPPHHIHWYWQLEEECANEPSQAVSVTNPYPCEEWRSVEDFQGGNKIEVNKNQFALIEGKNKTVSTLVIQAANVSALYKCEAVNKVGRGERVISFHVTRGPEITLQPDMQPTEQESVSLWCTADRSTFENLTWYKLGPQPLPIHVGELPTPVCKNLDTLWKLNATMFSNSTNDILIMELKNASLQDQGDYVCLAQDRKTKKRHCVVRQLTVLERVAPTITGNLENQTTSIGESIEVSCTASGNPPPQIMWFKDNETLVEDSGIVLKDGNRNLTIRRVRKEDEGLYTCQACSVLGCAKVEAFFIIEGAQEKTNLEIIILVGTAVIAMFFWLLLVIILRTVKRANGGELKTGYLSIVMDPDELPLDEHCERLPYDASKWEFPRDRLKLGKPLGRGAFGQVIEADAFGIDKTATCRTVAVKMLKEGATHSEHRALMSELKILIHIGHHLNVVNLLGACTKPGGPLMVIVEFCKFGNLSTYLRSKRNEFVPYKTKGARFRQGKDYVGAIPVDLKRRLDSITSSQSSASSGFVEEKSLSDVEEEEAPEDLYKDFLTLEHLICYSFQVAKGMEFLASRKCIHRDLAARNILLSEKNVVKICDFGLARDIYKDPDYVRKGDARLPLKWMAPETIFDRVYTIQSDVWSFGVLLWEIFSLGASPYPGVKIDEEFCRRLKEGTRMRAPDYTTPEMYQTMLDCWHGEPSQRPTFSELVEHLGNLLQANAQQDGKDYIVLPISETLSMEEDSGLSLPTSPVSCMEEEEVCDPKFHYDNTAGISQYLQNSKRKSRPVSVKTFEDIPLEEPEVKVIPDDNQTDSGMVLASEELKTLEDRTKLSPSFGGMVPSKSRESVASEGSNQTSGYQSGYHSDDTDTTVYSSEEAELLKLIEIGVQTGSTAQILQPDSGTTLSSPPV

[6] = system: βIII-tubulin overexpressing HeLa cell line; experiment: HeLa cytotoxicity, βIII-tubulin overexpressing; format: cell-based; conditions: βIII-tubulin overexpressing HeLa
[7] = target: EGFR (Homo sapiens, UniProt P00533); experiment: EGFR kinase inhibition, whole-cell assay; format: cell-based; conditions: read-out: kinase inhibition IC50 [whole-cell assays] EGFR
Chain of EGFR (P00533 25-1210, species assumed): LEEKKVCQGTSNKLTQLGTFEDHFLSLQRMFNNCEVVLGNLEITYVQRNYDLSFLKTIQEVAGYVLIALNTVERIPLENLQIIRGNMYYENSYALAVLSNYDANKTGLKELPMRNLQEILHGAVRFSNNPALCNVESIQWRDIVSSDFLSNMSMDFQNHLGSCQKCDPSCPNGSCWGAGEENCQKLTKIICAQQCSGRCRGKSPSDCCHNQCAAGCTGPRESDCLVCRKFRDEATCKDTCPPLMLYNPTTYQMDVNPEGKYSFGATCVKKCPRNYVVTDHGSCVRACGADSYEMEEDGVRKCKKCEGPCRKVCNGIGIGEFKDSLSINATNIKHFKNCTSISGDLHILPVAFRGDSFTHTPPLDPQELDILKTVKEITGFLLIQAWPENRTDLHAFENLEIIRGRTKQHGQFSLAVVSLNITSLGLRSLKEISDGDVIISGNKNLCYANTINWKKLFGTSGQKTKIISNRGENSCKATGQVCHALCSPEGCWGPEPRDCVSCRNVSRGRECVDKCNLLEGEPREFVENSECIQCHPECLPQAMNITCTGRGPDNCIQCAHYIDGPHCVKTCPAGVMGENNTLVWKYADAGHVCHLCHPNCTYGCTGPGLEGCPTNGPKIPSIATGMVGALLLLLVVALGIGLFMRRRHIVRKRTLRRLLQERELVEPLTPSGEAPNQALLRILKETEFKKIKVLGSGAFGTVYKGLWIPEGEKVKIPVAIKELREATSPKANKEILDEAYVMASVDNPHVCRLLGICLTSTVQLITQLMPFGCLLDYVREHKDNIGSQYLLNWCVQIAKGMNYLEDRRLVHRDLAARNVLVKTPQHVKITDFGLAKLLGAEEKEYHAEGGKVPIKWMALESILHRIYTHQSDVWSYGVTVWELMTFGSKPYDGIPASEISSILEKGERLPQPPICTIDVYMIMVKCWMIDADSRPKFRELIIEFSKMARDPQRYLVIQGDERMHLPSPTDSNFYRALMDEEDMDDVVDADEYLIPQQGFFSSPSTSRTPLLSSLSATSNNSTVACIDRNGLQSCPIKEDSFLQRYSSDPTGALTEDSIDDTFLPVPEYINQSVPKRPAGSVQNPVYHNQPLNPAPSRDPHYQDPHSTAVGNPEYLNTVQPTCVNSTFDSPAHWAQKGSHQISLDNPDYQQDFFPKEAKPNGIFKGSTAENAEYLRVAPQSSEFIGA

[8] = system: 4T1-Luc2GFP triple negative mouse breast cancer cells; format: in vivo; conditions: mouse, in vivo
Protocol: BALB/c mice were implanted with 7.5 k 4T1-Luc2GFP triple negative mouse breast cancer cells orthotopically into mammary fat pad 4. 7 days after implantation, tumors are visible in over 90% of animals. At day 8 and continuing twice weekly until the experiment end, the MTD of compound 4.HCl (i.e. the hydrochloride salt of compound 4 shown in FIG. 1), determined to be 40 mg/kg, was given IP to tumor-bearing mice; […]; Both drugs were in solvent (5% solutol-15, 5% PharmaSolve in normal saline) and a solvent control group was included in addition to sham injected (untreated) group. Primary tumor volume and animal weights was assessed by calipers throughout the experiment.
On day 40, all animals were injected IV with fluorescently labeled dextran as a marker of vasculature. Tumors were excised and weighed; lungs were excised and evaluated for metastases. […]; large micro metastases (>10 cells with no vasculature) and macrometastases (>10 cells with apparent vasculature) were counted. […]

Chain of PDGFRβ (P09619 33-1106, species assumed): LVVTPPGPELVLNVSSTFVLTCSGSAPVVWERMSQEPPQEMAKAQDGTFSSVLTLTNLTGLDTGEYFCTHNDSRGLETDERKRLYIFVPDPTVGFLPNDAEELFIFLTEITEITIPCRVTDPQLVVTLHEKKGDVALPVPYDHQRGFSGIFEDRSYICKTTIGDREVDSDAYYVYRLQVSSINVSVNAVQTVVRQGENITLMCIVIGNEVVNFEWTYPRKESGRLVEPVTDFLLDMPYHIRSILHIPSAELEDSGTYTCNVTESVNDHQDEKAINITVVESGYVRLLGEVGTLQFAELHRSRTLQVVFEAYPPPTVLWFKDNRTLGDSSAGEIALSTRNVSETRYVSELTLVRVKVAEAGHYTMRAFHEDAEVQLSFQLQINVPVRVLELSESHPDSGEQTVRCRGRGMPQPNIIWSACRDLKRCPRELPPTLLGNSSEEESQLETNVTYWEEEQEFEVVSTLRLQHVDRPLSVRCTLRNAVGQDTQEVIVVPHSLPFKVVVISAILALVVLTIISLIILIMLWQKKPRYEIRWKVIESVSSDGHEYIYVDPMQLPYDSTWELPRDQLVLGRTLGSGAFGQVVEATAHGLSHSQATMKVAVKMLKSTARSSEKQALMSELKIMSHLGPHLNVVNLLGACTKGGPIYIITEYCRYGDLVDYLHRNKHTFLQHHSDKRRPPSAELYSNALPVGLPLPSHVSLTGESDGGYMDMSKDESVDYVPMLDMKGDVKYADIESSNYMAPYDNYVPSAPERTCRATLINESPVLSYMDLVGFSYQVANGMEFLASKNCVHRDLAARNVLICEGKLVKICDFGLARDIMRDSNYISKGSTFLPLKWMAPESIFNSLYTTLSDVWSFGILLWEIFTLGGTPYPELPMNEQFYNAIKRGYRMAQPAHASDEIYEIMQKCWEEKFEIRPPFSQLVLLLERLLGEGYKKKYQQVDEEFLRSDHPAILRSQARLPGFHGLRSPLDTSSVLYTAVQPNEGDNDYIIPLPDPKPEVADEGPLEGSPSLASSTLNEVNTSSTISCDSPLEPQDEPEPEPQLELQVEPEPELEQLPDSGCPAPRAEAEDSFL

Compound	IC50 ([1]; Homo sapiens)	potency against PDGFRβ, in words [2]	IC50 ([2]; whole-cell assay, read-out: kinase inhibition IC50 [whole-cell assays] PDGFRβ)	IC50 [3]	IC50 [4]	IC50 [5]	IC50 ([6]; Homo sapiens)	IC50 [7]	IC50 [1]	IC50 [6]	animal weight [8]
COc1ccc(Nc2nc(C)nc3c(Cc4ccccc4)cn(C)c23)cc1 [Compound 3, 7-Benzyl-N-(4-methoxyphenyl)-2,5-dimethyl-5H-pyrrolo[3,2-d]pyrimidin-4-amine]	5000 nM	potencies comparable with DMBI	7.2 ± 0.9 nM	> 20000 nM	2.3 ± 0.3 nM	26.7 nM	5000 nM	2.6 nM			
COc1ccc(/C=C\c2cc(OC)c(OC)c(OC)c2)cc1O [combretastatin A-4, reference compound]									1.8 nM	2.5 ± 0.7 nM	
COc1cccc2c1C(=O)c1c(O)c3c(c(O)c1C2=O)C[C@@](O)(C(=O)CO)C[C@@H]3O[C@H]1C[C@H](N)[C@H](O)[C@H](C)O1 [doxorubicin, reference compound]					1.35 nM						began to result in weight loss in a few animals
